Measurements reported in patent US20240150289A1, “CRYSTALLINE CARBAZOLE DERIVATIVE” (Raziel Therapeutics Ltd., priority 2021, published 2024).
Entries after “also recorded” stand apart in the source; their conditions may differ.

Key:
[1] = Accelerated stability tests of crystalline Compound A Form 1 (storage, HPLC purity and XRPD); format: physicochemical; settings: 7 days; for Purity: HPLC
Method: (§1) XRPD analysis was carried out on a PANalytical X'pert Pro with PIXcel detector (128 channels), scanning the samples between 3 and 35° 2θ. The material was gently ground (where required) to release any agglomerates and loaded onto a multi-well plate with Kapton or Mylar polymer film to support the sample. The multi-well plate was then placed into the diffractometer and analyzed using Cu K radiation (α1 λ=1.54060 Å; α2 λ=1.54443 Å; β=1.39225 Å; α1:α2 ratio=0.5) running in transmission mode (step size 0.0130° 2θ, step time 18.87s) using 40 kV/40 mA generator settings. Data were visualized and images generated using the HighScore Plus 4.7 desktop application (PANalytical, 2017). Crystalline Compound A Form 1 was not changed after storage at room temperature for 7 days, storage at 40° C./75% RH for 7 days, or storage at 80° C. for 7 days. Purity was determined by HPLC analysis.

[2] = Long-term stability tests of crystalline Compound A Form 1 (storage, HPLC purity and XRPD); format: physicochemical; settings: for Purity: HPLC
Method: as §1, with “25° C/60%RH” for “room temperature”, “36 months or” for “7 days,”, “C/75%RH” for “C./75% RH”, “6 months.” for “7 days, or storage at 80° C. for 7 days.”

[3] = 25° C./60% RH (closed container), 3 months
[4] = 25° C./60% RH (closed container), 6 months
[5] = 25° C./60% RH (closed container), 12 months
[6] = 25° C./60% RH (closed container), 24 months
[7] = 25° C./60% RH (closed container), 36 months
[8] = 40° C./75% RH (closed container), 1 month
[9] = 40° C./75% RH (closed container), 3 months
[10] = 40° C./75% RH (closed container), 6 months

C[N+](C)(C)CCCCCn1c2ccc(Br)cc2c2cc(Br)ccc21.[Cl-] [Compound A Form 1, 5-(3,6-dibromo-9H-carbazol-9-yl)-N,N,N-trimethylpentan-1-aminium chloride Form 1]
XRPD ([1]; 40° C./75% RH (open vial)): not changed; also recorded: Unchanged
Purity ([1]; 40° C./75% RH (open vial)): 99.93%
XRPD ([1]; 80° C. (closed vial)): not changed; also recorded: Unchanged
Purity ([1]; 80° C. (closed vial)): 99.93%
XRPD ([1]; Room Temperature (open vial)): not changed; also recorded: Unchanged
Purity ([1]; Room Temperature (open vial)): 99.93%
XRPD [2, 3]: Unchanged
Purity [2, 3]: 99.7%
XRPD [2, 4]: Unchanged
Purity [2, 4]: 99.7%
XRPD [2, 5]: Unchanged
Purity [2, 5]: 99.7%
XRPD [2, 6]: Unchanged
Purity [2, 6]: 99.7%
XRPD [2, 7]: not changed; also recorded: Unchanged
Purity [2, 7]: 99.7%
XRPD [2, 8]: Unchanged
Purity [2, 8]: 99.7%
XRPD [2, 9]: Unchanged
Purity [2, 9]: 99.7%
XRPD [2, 10]: not changed; also recorded: Unchanged
Purity [2, 10]: 99.8%
